The test system of this test is Murine Encephalomyocarditis virus (EMCV). In words: EMCV antiviral assay (cell viability by MTS). In kind it is cell-based. The settings on record: Huh7 cells; for Cell viability post-infection: EMCV 250 pfu, MTS. How it is done: Huh7 cells were grown under normal growth conditions and treated with the indicated amount of drug in media containing 0.5% DMSO. The cells were grown in the presence of drug for 5 hours and then infected with 250 pfu Murine Encephalomyocarditis virus (EMCV) for example obtained from ATCC #VR-129B. Infected cells were grown for an additional 18 hours and then cell viability was measured using an MTS assay. Negative control cells were treated with buffer alone containing 0.5% DMSO. Interferon treatment was used as a positive control for virus inhibition and was added similar to drug treatments at a final concentration of 10 IU/mL for example Interferon-α: Intron A, from Schering-Plough. Cell viability was measured using an MTS assay such as; CellTiter 96® AQueous One Solution Cell Proliferation Assay (MTS), from Promega #G3580.

Structures are written as SMILES.

Consider `CS(=O)(=O)Oc1ccc2c(=O)c(-c3ccc(Br)cc3)coc2c1` [KIN101, [3-(4-bromophenyl)-4-oxo-chromen-7-yl] methanesulfonate], for which the “Protection of cell viability following infection with EMCV (in words)” value is “protective of cell viability”. The same molecule showed a Cell viability post-infection (5 μM drug) of roughly 0.7. Besides, where the note is “10 μM drug”, the Cell viability post-infection is roughly 1.2. In addition, the Cell viability post-infection (20 μM drug) is on record as roughly 1.45.
